Results on two compounds are retold here after PMC11375702, “Early Preclinical Studies of Ergosterol Peroxide and Biological Evaluation of Its Derivatives” (ACS Omega, 2024).

Molecules are shown by their SMILES. Values after ≈ are worked out from the molar mass of the structure shown. Read-outs that look alike come from different tables or passages of the source.

In general, EC50 refers to the concentration needed to bring the measured effect to its halfway point. Read a low EC50 as higher potency in that assay. By IC50 is commonly meant the concentration needed to halve the response being measured. The solubility is the concentration that dissolves in the medium under given conditions.

Data set [1] is described as follows: Parallel Artificial Membrane Permeability Assay (PAMPA). In kind it is in vitro ADME. As for the experimental part:
This assay is to analyze the permeability of various drugs/compounds on a homogeneous artificial lipid membrane using the normal Double-Sink PAMPA protocol. Then, 6 μL of 10 mM compound solution in DMSO was applied to each well in a stock plate. Compounds were diluted 200-fold in PBS buffer (pH = 7.4). 180 μL of diluted solution was added to a donor plate (pION INC, Woburn, MA). A filter plate (acceptor plate; pION INC, Woburn, MA) containing 200 μL of acceptor sink buffer (ASB, pH = 7.4; pION INC, Woburn, MA) was then placed over the donor plate. The plates were incubated at room temperature for 0.5 h with magnetic stirring in individual wells to allow the compounds to cross the membrane. Fractions were collected from both the donor plate and the acceptor plate, and the concentrations were assessed by UV spectrometry (230–500 nm). Sample preparation, sample analysis, and data processing are fully automated using a Biomek FX ADME-TOX workstation and the UV-based PAMPA Evolution-96 Command Software. All compounds were tested in triplicates.

A further data set deals with SUM149. As to the kind of experiment: CellTiter-Glo 72 h cytotoxicity assay, SUM149. In kind it is cell-based. The following applies: Homo sapiens; for EC50: SUM149, CTG assay, 72 h; for IC50: calculated from SUM149 EC50. The source says: (§1) First, topological polar surface area (tPSA), a widely used molecular descriptor that provides insight into compound absorption and membrane penetration, was theoretically calculated for these compounds along with the estimated c log P (partition coefficient) or log P to further assess their global therapeutic potential.[18],[19] Lipophilicity, a measurable and predictable physical property, can provide practical guidance in designing compounds with improved molecular properties.[20] The tPSA sums the contribution of the surface area of polar atoms, enabling us to determine whether the compounds are more likely to be cell membrane permeable. The aqueous solubility was measured by ultraviolet/visible (UV/vis) spectroscopy.[21] […] EP shares an improved cLogP, but still relatively high from a desirable drug candidate (2.5–3.5). […] Compound 4 has a higher c log P, while compounds 5–10 have lower c log P values. To determine LiPE (lipophilicity efficiency), the following formula was used: LiPE = pIC50 – log P, according to established methods.[22],[23] […] The obtained EC50 values for the newly generated EP derivatives were within a similar range for other derivatives previously described against TNBC models.[17]
(§2) The following stable human cell lines were utilized for this study: SUM149 and MDA-MB-231 (breast cancer models) and BJ (human normal fibroblast, foreskin). Cells were purchased from BioIVT or the American Type Culture Collection (ATCC). Cells were cultured in F-12-Nutrient Mixture (SUM149), DMEM (MDA-MB-231), or EMEM (BJ) medium supplemented with 10% fetal bovine serum (Sigma-Aldrich, St. Louis, MO) and 2 mmol of L-glutamine, at 37 °C in a humidified 5% CO2 atmosphere (no antibiotics) as indicated by the manufacturer. Cell cultures were grown to 80–90% confluence before use, except where otherwise specified. Our cell lines are authenticated every 3 months using the CellCheck service (Idexx BioResearch, Westbrook, ME). Cells were tested for mycoplasma prior to use (MycoAlert detection Kit Lonza LT07–318) and discarded if they tested positive. A cell proliferation assay was performed using the CellTiter-Glo (Promega Corp., Madison, WI) luminescent cell viability assay kit. Cells were detached with trypsin, counted, and seeded in white polystyrene flat-bottom sterile 96-well tissue culture-treated plates (catalog no. 3917, Corning, Glendale, Arizona) and incubated overnight at 37 °C. MDA-MB231, SUM149, and BJ cells were seeded into 96-well plates at concentrations experimentally determined (0.4 × 10^4, 0.25 × 10^4, and 0.3 × 10^4 cells per well, respectively) to ensure logarithmic growth during the duration of the experiment and to prevent adverse effects on cell growth by DMSO exposure. The plates were incubated for 12 h before treatment. Stock solutions of test compounds (10 mM in DMSO) in nine 3-fold serial dilutions were dispensed. The final concentration of DMSO was 0.3% (v/v) in each well. The positive control used was staurosporine (10 μM) as the kill-all control, and the negative control used is DMSO as we have published. Staurosporine is a potent alkaloid inducer of various cell death modalities but primarily apoptosis, making it a reliable positive control for viability assays. The plates were incubated for 72 h and then quenched with CTG at 50 μL per well at RT. Plates were then incubated at RT for 20 min and centrifuged at 1000 rpm for 1 min. Luminescence was read on a CLARIOstar Plus plate reader (BMG LabTech, Ortenberg, Germany).
Three or four technical replicates were conducted for each experimental condition, and a minimum of three independent experiments were conducted for each assay. In vitro ADME values were expressed as mean ± standard deviation (SD) of at least three independent experiments. One-way analysis of variance (ANOVA) was adopted for comparisons among groups using the GraphPad Prism 10.2.3 (GraphPad Software, San Diego, CA). A difference of P < 0.05 was considered as statistically significant. […]

The nature of data set [2]: Aqueous solubility by UV/vis absorbance. In kind it is physicochemical. The following applies: kinetic from dmso stock.
Source text: as §1
Briefly, clear 96-well PS plates with lids (catalog no. 3903, Corning, Glendale, Arizona) were used for spectrophotometric determination of absorbance with a CLARIOstar Plus plate reader (BMG LabTech, Ortenberg, Germany) to determine at which concentration the compounds are precipitating out of solution. Decrease in transmittance of 2% or higher was considered significant. Compound solutions of 10 mM in DMSO were prepared followed by a serial dilution series, which were vortexed to ensure the solutions were homogeneous. The 96-well plate was then prepared with distilled H2O and allowed to equilibrate for 1.5 h. Then, the plate was placed in a CLARIOstar Plus plate reader or Cytation C10 (Biotek, Agilent) and set to detect absorbance at 220–700 nm. Each well was read individually. Three replicate assays were conducted for each experimental condition, and a minimum of three independent experiments were conducted.

Another data set has as its system BJ. As to the kind of experiment: CellTiter-Glo 72 h cytotoxicity assay, BJ normal fibroblasts. Type of data set: cell-based. The following applies: Homo sapiens, CTG assay, noncancerous fibroblasts. As to the method:
as §2
Three or four technical replicates were conducted for each experimental condition, and a minimum of three independent experiments were conducted for each assay. In vitro ADME values were expressed as mean ± standard deviation (SD) of at least three independent experiments. One-way analysis of variance (ANOVA) was adopted for comparisons among groups using the GraphPad Prism 10.2.3 (GraphPad Software, San Diego, CA). A difference of P < 0.05 was considered as statistically significant. Data are expressed as mean ± SEM. For CTG, the mean luminescence of each experimental treatment group was normalized as a percentage of the mean intensity of untreated controls (DMSO as vehicle). EC50 values were calculated from dose–response curve fitting via nonlinear regression using GraphPad Prism 10.2.3 (GraphPad Software, San Diego, CA). A therapeutic index (TI) between normal and tumor cell lines can be determined (EC50 non-neoplastic cell line BJ)/(EC50 cancer cell line). In vivo studies were analyzed using mixed-effects regression models to compare the changes in tumor volume over time by treatment group. Tumor volume reduction was compared using ANOVA with repeated measures, and all data was considered significant when P < 0.05.
(In general: In ATP-based viability assays light output follows the ATP content of the culture.)

In the case of `CC(C)[C@@H](C)/C=C/[C@@H](C)[C@H]1CC[C@@H]2[C@]1(C)CC[C@H]1[C@]23C=C[C@]2(C[C@@H](O)CC[C@]12C)OO3` [Compound 2, Ergosterol peroxide], the Papp at 0.5 h, 50 µM in data set [1] (PAMPA, pH 7.4, pH 7.40, read-out: PAMPA Avg Pe) came to 65.3 ×10⁻⁶ cm/s. For the same compound, in data set [1] (pH 7.40), the “PAMPA %R” value is recorded as 81.90% and the “PAMPA Avg Pe” value is 65.31 10–6 cm/s. In addition, in the data set with SUM149, it took 6 µM to reach a half-maximal effect (EC50) and the half-inhibitory concentration (IC50) is 6.03 µM. For the same compound, the solubility at […] in data set [2] (distilled water, distilled H2O, UV/vis, read-out: solubility limit) was 21.4 µg/mL (≈ 50 µM). Moreover, in the data set on BJ, the EC50 was over 50 µM.

With `CC(C)[C@@H](C)/C=C/[C@@H](C)[C@H]1CC[C@@H]2[C@]1(C)CC[C@H]1[C@]23C=C[C@]2(CC(=O)CC[C@]12C)OO3` [Compound 3], the “PAMPA Avg Pe” value in data set [1] (PAMPA, 0.5 h, 50 µM, pH 7.4) is 00 10–6 cm/s. The results for the EC50 in the data set on SUM149 and in the data set with BJ were 5 µM and over 50 µM, respectively. For the same compound, the IC50 in the data set on SUM149 is 5.01 µM. In addition, the concentration in solution in data set [2] (water) (solubility at […]) came to 10.7 µg/mL (≈ 25 µM).
